Laboratory results from patent US5733913A, “6-Aryl pyrido[2,3-d] pyrimidines and naphthyridines for inhibiting protein tyrosine kinase mediated cellular proliferation” (priority 1995, dated 1998).
Like-named read-outs stand apart in the source and are kept apart here.

Key:
Type in all cases: biochemical
[1] = biological target: T1, mouse PDGF-β receptor tyrosine kinase (Mus musculus, UniProt P05622); assay: PDGF receptor tyrosine kinase assay; conditions: for IC50: read-out: Inhibition of Protein Tyrosine Kinases, PDGF, IC50; for inhibition at 50 µM: read-out: Inhibition of Protein Tyrosine Kinases, PDGF, % Inhibition
T1 construct: a fragment of DNA that codes for the intracellular tyrosine kinase domain; made in house; host or cells: Sf9 insect cells (baculovirus), cell lysate
Text: (§1) PDGF and FGF Receptor Tyrosine Kinase Assays
(§2) Full length cDNAs for the mouse PDGF-β and human FGF-1 (flg) receptor tyrosine kinases were obtained from J. Escobedo and prepared as described in J. Biol. Chem., 262:1482-1487 (1991), and PCR primers were designed to amplify a fragment of DNA that codes for the intracellular tyrosine kinase domain. The fragment was melded into a baculovirus vector, cotransfected with AcMNPV DNA, and the recombinant virus isolated. SF9 insect cells were infected with the virus to overexpress the protein, and the cell lysate was used for the assay. […] Briefly, to each well was added 82.5 μL of incubation buffer containing 25 mM Hepes (pH 7.0), 150 mM NaCl, 0.1% Triton X-100, 0.2 mM PMSF, 0.2 mM Na3 VO4, 10 mM MnCl2, and 750 μg/mL of Poly (4:1) glutamate-tyrosine followed by 2.5 μL of inhibitor and 5 μL of enzyme lysate (7.5 μg/μL FGF-TK or 6.0 μg/μL PDGF-TK) to initiate the reaction. Following a 10 minute incubation at 25° C., 10 μL of γ^32 P-ATP (0.4 μCi plus 50 μM ATP) was added to each well and samples were incubated for an additional 10 minutes at 25° C. The reaction was terminated by the addition of 100 μL of 30% trichloroacetic acid (TCA) containing 20 mM sodium pyrophosphate and precipitation of material onto glass fiber filter mats (Wallac). […] Nonspecific activity was defined as radioactivity retained on the filters following incubation of samples with buffer alone (no enzyme). Specific enzymatic activity was defined as total activity (enzyme plus buffer) minus nonspecific activity.

[2] = biological target: T2, human FGF-1 (flg) receptor tyrosine kinase (Homo sapiens, UniProt P11362); assay: FGF receptor tyrosine kinase assay; conditions: read-out: Inhibition of Protein Tyrosine Kinases, FGF, IC50
T2 construct: a fragment of DNA that codes for the intracellular tyrosine kinase domain; made in house; host or cells: Sf9 insect cells (baculovirus), cell lysate
Text: as §1, §2

C-src kinase = biological target: T3, C-src kinase (Homo sapiens, UniProt P12931); assay: C-src kinase assay; conditions: for inhibition at 50 µM: read-out: Inhibition of Protein Tyrosine Kinases, C-src, % Inhibition; for IC50: read-out: Inhibition of Protein Tyrosine Kinases, C-src, IC50
T3 construct: made in house; host or cells: baculovirus-infected insect cells
Experimental: V-src and C-src Kinase Assays
V-src or C-src kinase is purified from baculovirus infected insect cell lysates using an antipeptide monoclonal antibody directed against the N-terminal 2-17 amino acids. The antibody, covalently linked to 0.65-μm latex beads, is added to a suspension of insect cell lysis buffer comprised of 150 mM NaCl, 50 mM Tris pH 7.5, 1 mM DTT, 1% NP-40, 2 mM EGTA, 1 mM sodium vanadate, 1 mM PMSF, 1 μg/mL each of leupeptin, pepstatin, and aprotinin. […] At the end of the lysate incubation, the beads are rinsed 3 times in lysis buffer, resuspended in lysis buffer containing 10% glycerol, and frozen. These latex beads are thawed, rinsed three times in assay buffer which is comprised of 40 mM tris pH 7.5, 5 mM MgCl2, and suspended in the same buffer. In a Millipore 96-well plate with a 0.65 μm polyvinylidine membrane bottom are added the reaction components: 10-μL v-src or c-src beads, 10 μL of 2.5 mg/mL poly GluTyr substrate, 5 μM ATP containing 0.2 μCi labeled ^32 P-ATP, 5μL DMSO containing inhibitors or as a solvent control, and buffer to make the final volume 125 μL. The reaction is started at room temperature by addition of the ATP and quenched 10 minutes later by the addition of 125 μL of 30% TCA, 0.1M sodium pyrophosphate for 5 minutes on ice. The plate is then filtered and the wells washed with two 250-μL aliquots of 15% TCA, 0.1M pyrophosphate. The filters are punched, counted in a liquid scintillation counter, and the data examined for inhibitory activity in comparison to a known inhibitor such as erbstatin. The method is described more fully in J. Med. Chem., 37:598-609 (1994).

T1 sequence (P05622 599-961 limits assumed): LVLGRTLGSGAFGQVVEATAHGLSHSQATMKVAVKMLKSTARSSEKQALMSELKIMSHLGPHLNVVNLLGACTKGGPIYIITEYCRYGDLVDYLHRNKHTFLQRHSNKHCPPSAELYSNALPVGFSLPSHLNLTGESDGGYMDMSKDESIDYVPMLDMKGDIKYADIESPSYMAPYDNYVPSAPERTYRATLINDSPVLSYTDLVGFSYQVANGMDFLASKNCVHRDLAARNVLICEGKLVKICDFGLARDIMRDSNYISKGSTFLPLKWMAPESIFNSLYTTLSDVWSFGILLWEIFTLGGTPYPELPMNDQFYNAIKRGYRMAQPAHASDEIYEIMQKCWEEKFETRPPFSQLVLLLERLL
T2 sequence (P11362 478-767 limits assumed): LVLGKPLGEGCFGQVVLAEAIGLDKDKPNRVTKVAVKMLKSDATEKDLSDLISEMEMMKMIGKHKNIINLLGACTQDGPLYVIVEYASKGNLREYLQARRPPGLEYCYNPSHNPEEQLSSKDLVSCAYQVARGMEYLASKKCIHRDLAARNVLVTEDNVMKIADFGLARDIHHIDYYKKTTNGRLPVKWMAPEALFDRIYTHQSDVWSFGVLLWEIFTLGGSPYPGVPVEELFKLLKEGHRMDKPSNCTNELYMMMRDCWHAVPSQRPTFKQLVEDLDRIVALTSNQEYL
T3 sequence (P12931 whole entry): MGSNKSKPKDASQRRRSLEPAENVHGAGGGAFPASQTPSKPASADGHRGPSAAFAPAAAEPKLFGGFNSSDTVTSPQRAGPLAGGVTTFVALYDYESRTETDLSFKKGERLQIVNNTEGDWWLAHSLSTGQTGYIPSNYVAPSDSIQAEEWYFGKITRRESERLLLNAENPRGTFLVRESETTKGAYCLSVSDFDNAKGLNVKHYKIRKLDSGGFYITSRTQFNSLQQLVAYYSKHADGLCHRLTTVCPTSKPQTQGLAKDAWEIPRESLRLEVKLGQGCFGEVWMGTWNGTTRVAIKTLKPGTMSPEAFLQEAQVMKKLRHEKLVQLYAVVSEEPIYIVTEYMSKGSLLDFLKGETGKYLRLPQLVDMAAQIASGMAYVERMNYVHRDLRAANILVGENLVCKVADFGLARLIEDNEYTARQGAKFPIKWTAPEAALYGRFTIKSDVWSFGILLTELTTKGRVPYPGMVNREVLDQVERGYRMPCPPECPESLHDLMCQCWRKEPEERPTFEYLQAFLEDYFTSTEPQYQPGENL

Cc1cc(C)c(-c2cc3cnc(N)nc3nc2NC(=O)NC(C)(C)C)c(C)c1 [Example 97, 1-[2-Amino-6-(2,4,6-trimethyl-phenyl)-pyrido[2,3-d]pyrimidin-7-yl]-3-tert-butyl-urea]
IC50 [1]: 1.73 µM | IC50 [2]: 0.34 µM | inhibition at 50 µM (C-src kinase): 28.9%

CCCNC(=O)Nc1nc2nc(N)ncc2cc1-c1c(Cl)cccc1Cl [Example 26, 1-[2-Amino-6-(2,6-dichlorophenyl)-pyrido[2,3-d]pyrimidin-7-yl]-3-propyl-ure]
IC50 [1]: 1.08 µM | IC50 [2]: 0.116 µM | IC50 (C-src kinase): 0.0395 µM

COc1ccccc1NC(=O)Nc1nc2nc(NCCCN3CCN(C)CC3)ncc2cc1-c1c(Cl)cccc1Cl [Example 43, 1-{6-(2,6-Dichlorophenyl)-2-[3-(4-methyl-piperazin-1-yl)-propylamino]-pyrido[2,3-d]pyrimidin-7-yl}-3-(2-methoxy-phenyl)-urea]
IC50 [1]: 0.405 µM | IC50 [2]: 0.091 µM | IC50 (C-src kinase): 0.011 µM

CN1CCN(CCCNc2ncc3cc(-c4c(Cl)cccc4Cl)c(NC(=O)Nc4ccc(Cl)cc4)nc3n2)CC1 [Example 45, 1-(4-Chloro-phenyl)-3-{6-(2,6-dichlorophenyl)-2-[3-(4-methyl-piperazin-1-yl)-propylamino]-pyrido[2,3-d]pyrimidin-7-yl}-urea]
IC50 [1]: 1.85 µM | IC50 [2]: 0.198 µM | IC50 (C-src kinase): 0.04 µM

COc1ccccc1-c1cc2cnc(N)nc2nc1NC(=O)NC(C)(C)C [Example 101, 1-[2-Amino-6-(2-methoxy-phenyl)-pyrido[2,3-d]pyrimidin-7-yl]-3-tert-butyl-urea]
IC50 [1]: 4.48 µM | IC50 [2]: 11.2 µM | IC50 (C-src kinase): 19.3 µM

Cc1cc(C)c(C)c(-c2cc3cnc(N)nc3nc2N)c1C [Example 98, 6-(2,3,5,6-Tetramethyl-phenyl)-pyrido[2,3-d]pyrimidine-2,7-diamine]
inhibition at 50 µM [1]: 34.3% | IC50 [2]: 1.8 µM | inhibition at 50 µM (C-src kinase; at 50 μM): 0.5%

COc1cccc(-c2cc3cnc(N)nc3nc2NC(=O)NC(C)(C)C)c1 [Example 103, 1-[2-Amino-6-(3-methoxy-phenyl)-pyrido[2,3-d]pyrimidin-7-yl]-3-tert-butyl-urea]
IC50 [1]: 19.6 µM | IC50 [2]: 0.3 µM | IC50 (C-src kinase): 36.4 µM

CCCS(=O)(=O)Nc1nc2nc(N)ncc2cc1-c1c(Cl)cccc1Cl [Example 106, Propane-1-sulfonic acid [2-amino-6-(2,6-dichlorophenyl)-pyrido[2,3-d]pyrimidin-7-yl]-amide]
IC50 [1]: 4.8 µM | IC50 [2]: 0.361 µM | IC50 (C-src kinase): 0.236 µM

CC(C)(C)NC(=O)Nc1nc2nc(N)ncc2cc1-c1c(Cl)ccc(Cl)c1Cl [Example 86, 1-[2-Amino-6-(2,3,6-trichloro-phenyl)-pyrido[2,3-d]pyrimidin-7-yl]-3-tert-butyl-urea]
IC50 [1]: 2.96 µM | IC50 [2]: 0.114 µM | IC50 (C-src kinase): 1.41 µM

CCNC(=O)Nc1nc2nc(NCCCN3CCN(C)CC3)ncc2cc1-c1c(Cl)cccc1Cl [Example 49, 1-{6-(2,6-Dichlorophenyl)-2-[3-(4-methyl-piperazin-1-yl)-propylamino]-pyrido[2,3-d]pyrimidin-7-yl}-3-ethyl-urea]
IC50 [1]: 0.42 µM | IC50 [2]: 0.0535 µM | IC50 (C-src kinase): 0.024 µM

CC(C)(C)NC(=O)Nc1nc2nc(N)ncc2cc1-c1c(F)cccc1F [Example 87, 1-[2-Amino-6-(2,6-difluoro-phenyl)-pyrido[2,3-d]pyrimidin-7-yl]-3-tert-butyl-urea]
IC50 [1]: 1.88 µM | IC50 [2]: 0.118 µM | inhibition at 50 µM (C-src kinase): 92.7%

CC(C)(C)NC(=O)Nc1nc2nc(N)ncc2cc1-c1c(Cl)cccc1Br [Example 105, 1-[2-Amino-6-(2-bromo-6-chloro-phenyl)-pyrido[2,3-d]pyrimidin-7-yl]-3-tert-butyl-urea]
IC50 [1]: 0.618 µM | IC50 [2]: 0.181 µM | IC50 (C-src kinase): 0.214 µM

CCN(CCO)CCCNc1ncc2cc(-c3c(Cl)cccc3Cl)c(N)nc2n1 [Example 70, 2-({3-[7-Amino-6-(2,6-dichlorophenyl)-pyrido[2,3-d]pyrimidin-2-ylamino]-propyl}-ethyl-amino)-ethanol]
IC50 [1]: 31.4 µM | IC50 [2]: 2.59 µM | IC50 (C-src kinase): 0.929 µM

Cc1cccc(-c2cc3cnc(N)nc3nc2NC(=O)NC(C)(C)C)c1C [Example 93, 1-[2-Amino-6-(2,3-dimethyl-phenyl)-pyrido[2,3-d]pyrimidin-7-yl]-3-tert-butyl-urea]
IC50 [1]: 6.05 µM | IC50 [2]: 0.343 µM | IC50 (C-src kinase): 4.17 µM

CCN(CC)CCNc1ncc2cc(-c3c(Cl)cccc3Cl)c(N)nc2n1 [Example 65, 6-(2,6-Dichlorophenyl)-N^2-(2-diethylamino-ethyl)-pyrido[2,3-d]pyrimidine-2,7-diamine]
inhibition at 50 µM [1]: 29.6% | IC50 [2]: 17 µM | inhibition at 50 µM (C-src kinase; at 50 μM): 95%

CCCCCCCCNC(=O)Nc1nc2nc(NCCCN3CCN(C)CC3)ncc2cc1-c1c(Cl)cccc1Cl [Example 47, 1-{6-(2,6-Dichlorophenyl)-2-[3-(4-methyl-piperazin-1-yl)-propylamino]-pyrido[2,3-d]pyrimidin-7-yl}-3-octyl-urea]
IC50 [1]: 6.17 µM | IC50 [2]: 0.637 µM | IC50 (C-src kinase): 0.161 µM

Cc1cc(C)c(C)c(-c2cc3cnc(NCCCN4CCN(C)CC4)nc3nc2N)c1C [Example 120, N^2-[3-(4-Methyl-piperazin-1-yl)-propyl]-6-(2,3,5,6-tetramethyl-phenyl)-pyrido[2,3-d]pyrimidine-2,7-diamine]
IC50 [1]: 3.84 µM | IC50 [2]: 3.27 µM | IC50 (C-src kinase): 42.7 µM

CN1CCN(CCCNc2ncc3cc(-c4c(Cl)cccc4Cl)c(NC(=O)Nc4ccc(C(F)(F)F)cc4)nc3n2)CC1 [Example 48, 1-{6-(2,6-Dichlorophenyl)-2-[3-(4-methyl-piperazin-1-yl)-propylamino]-pyrido[2,3-d]pyrimidin-7-yl}-3-(4-trifluoromethyl-phenyl)-urea]
IC50 [1]: 5.32 µM | IC50 [2]: 0.613 µM | IC50 (C-src kinase): 0.26 µM

CC(C)(C)NC(=O)Nc1nc2nc(N)ncc2cc1-c1ccncc1 [Example 110, 1-(2-Amino-6-pyridin-4-yl-pyrido[2,3-d]pyrimidin-7-yl)-3-tert-butyl-urea]
IC50 [1]: 11.5 µM | IC50 [2]: 12.8 µM | inhibition at 50 µM (C-src kinase; at 50 μM): 27.5%

CN1CCN(CCCNc2ncc3cc(-c4c(Cl)cccc4Cl)c(NC(=O)NC45CC6CC(CC(C6)C4)C5)nc3n2)CC1 [Example 117, 1-Adamantan-1-yl-3-{6-(2,6-dichlorophenyl)-2-[3-(4-methyl-piperazin-1-yl)-propylamino]-pyrido[2,3-d]pyrimidin-7-yl}-urea]
IC50 [1]: 2.79 µM | IC50 [2]: 0.135 µM | inhibition at 50 µM (C-src kinase; at 50 μM): 100%

CCN(CC)CCCCNc1ncc2cc(-c3c(Cl)cccc3Cl)c(N)nc2n1 [Example 53, 6-(2,6-Dichlorophenyl)-N^2-(4-diethylamino-butyl)-pyrido[2,3-d]pyrimidine-2,7-diamine]
IC50 [1]: 7.08 µM | IC50 [2]: 0.693 µM | IC50 (C-src kinase): 0.153 µM

CC(C)(C)NC(=O)Nc1nc2nc(N)ncc2cc1-c1cccc(Cl)c1Cl [Example 84, 1-[2-Amino-6-(2,3-dichlorophenyl)-pyrido[2,3-d]pyrimidin-7-yl]-3-tert-butyl-urea]
IC50 [1]: 2.26 µM | IC50 [2]: 0.162 µM | IC50 (C-src kinase): 3.82 µM

Nc1nc2nc(NCCCN3CCOCC3)ncc2cc1-c1c(Cl)cccc1Cl [Example 58, 6-(2,6-Dichlorophenyl)-N^2-(3-morpholin-4-yl-propyl)-pyrido[2,3-d]pyrimidine-2,7-diamine]
IC50 [1]: 19 µM | IC50 [2]: 3.46 µM | inhibition at 50 µM (C-src kinase; at 50 μM): 110%
